Assay results: patent US20260317347A1, “MACROCYCLIC COMPOUNDS AND THERAPEUTIC USES THEREOF” (SUNRISE ONCOLOGY (HONG KONG) LIMITED, priority 2023, published 2026)
“Also recorded” adds a separate entry of the source.

Experiments:
RAS dependent cells = test: Cell Viability Assay (MTS), overall statement; format: cell-based; details: FIG. 2
Source text: (§1) Selective screening using RAS-driven and RAS-non-driven cells: (1) RAS-driven cells, including cells with persistent RAS activation due to RAS mutations and upstream EGFR activation. Cells that are continuously activated due to RAS mutations, such as KRAS G12D (AsPC-1, HPAC, etc.) mutant cells, KRAS G12C (NCI-H358, MIAPaCa-2, etc.) KRAS G13D (LOVO, HCT15, etc.) mutant cells, etc. Cells with continuous activation of RAS due to EGFR mutations, such as EGFREx19del (PC-9, etc.) mutant cells, EGFRT790M/L858R (NCI-H1975, etc.) mutant cells, etc.; (2) Non-RAS driven cells, including BRAFV600E (A375, SK)-MEL-3, etc.) mutant cells, RASWT (BxPC-3, etc.) cells, etc.
(§2) Specific experimental methods: The above cells were seeded in a 96-well plate at a density of 1000-10000 per well. Drugs were diluted in DMSO to make a 10 mM stock solution. Subsequently, the drug was diluted in a 3-fold gradient to a final concentration of 1000 nM. The cells were treated with the drug for 5 days. Cell viability was then detected by the MTS method.

[1] = target: KRAS Q61H GTP + RAF1 + CYPA (Homo sapiens, UniProt P01116+P62937, Q61H); test: Ras: RAF1 HTRF Assay (RAS-GTP & Raf disruption); format: biochemical; details: 1 h incubation, room temperature
[2] = target: KRAS G12C GTP + RAF1 + CYPA (Homo sapiens, UniProt P01116+P62937, G12C); test: Ras: RAF1 HTRF Assay (RAS-GTP & Raf disruption); format: biochemical; details: 1 h incubation, room temperature
Procedure: (§3) This example is to verify the binding between RAS protein and its interacting protein (SOS1 or RAF1). When RAS exists with SOS1 or RAF, the two interact to make the energy donor and receptor bound to it close enough, and then when the donor is excited by an external light source, energy resonance transfer occurs, thereby exciting the receptor and emitting a specific wavelength of emitted light, the FRET signal is detected.
(§4) Specific experimental methods: 20 nM purified RAS protein (e.g. KRAS-G12D, G12V, G12C, WT; NRAS-WT) was incubated with the drug to be screened (the drug was diluted in a 3-fold gradient to a final concentration of 1000 nM) at room temperature for 1 h. Subsequently, 30 nM purified SOS1-Cat was added and incubated at room temperature for 0.5-1 h. After adding the detection antibody (PerkinElmer, Cisbio, HTRF antibody), the value was measured according to the manufacturer's instructions.

[3] = target: HRAS WT GTP + RAF1 + CYPA (Homo sapiens, UniProt P01112+P62937); test: Ras: RAF1 HTRF Assay (RAS-GTP & Raf disruption); format: biochemical; details: 1 h incubation, room temperature
Procedure: as §3, §4

[4] = target: KRAS G12V GTP + RAF1 + CYPA (Homo sapiens, UniProt P01116+P62937, G12V); test: Ras: RAF1 HTRF Assay (RAS-GTP & Raf disruption); format: biochemical; details: 1 h incubation, room temperature
Procedure: as §3, §4

[5] = target: KRAS G12D GTP + RAF1 + CYPA (Homo sapiens, UniProt P01116+P62937, G12D); test: Ras: RAF1 HTRF Assay (RAS-GTP & Raf disruption); format: biochemical; details: 1 h incubation, room temperature
Procedure: as §3, §4

[6] = target: KRAS G12R GTP + RAF1 + CYPA (Homo sapiens, UniProt P01116+P62937, G12R); test: Ras: RAF1 HTRF Assay (RAS-GTP & Raf disruption); format: biochemical; details: 1 h incubation, room temperature
Procedure: as §3, §4

[7] = target: KRAS G12S GTP + RAF1 + CYPA (Homo sapiens, UniProt P01116+P62937, G12S); test: Ras: RAF1 HTRF Assay (RAS-GTP & Raf disruption); format: biochemical; details: 1 h incubation, room temperature
Procedure: as §3
as §4, with “Subsequently, 30 nM purified SOS1-Cat was added and incubated at room temperature for 0.5-1 h.” left out

[8] = system: NCI-H1975 (EGFR T790M/L858R) cells; test: Cell Viability Assay (MTS); format: cell-based; details: 5 days, FIG. 2
Source text: as §1, §2

A375 (BRAF V600E) cells = test: Cell Viability Assay (MTS); format: cell-based; details: RAS-independent, 5 days, FIG. 2
Source text: as §1, §2

AGS (KRAS G12D) cells = test: Cell Viability Assay (MTS); format: cell-based; details: 5 days, FIG. 2
Source text: as §1, §2

LOVO (KRAS G13D) cells = test: Cell Viability Assay (MTS); format: cell-based; details: 5 days, FIG. 2
Source text: as §1, §2

HepG2 (NRAS Q61L) cells = test: Cell Viability Assay (MTS); format: cell-based; details: 5 days, FIG. 2
Source text: as §1, §2

SW620 (KRAS G12V) cells = test: Cell Viability Assay (MTS); format: cell-based; details: 5 days, FIG. 2
Source text: as §1, §2

[9] = system: RAF1 with active KRAS mutant protein or HRAS WT protein; test: Ras: RAF1 HTRF Assay, overall statement; format: biochemical; details: in words; FIG. 1

Sequence of KRAS G12R GTP + RAF1 + CYPA (P01116 1-188 isoform P01116-2 G12R): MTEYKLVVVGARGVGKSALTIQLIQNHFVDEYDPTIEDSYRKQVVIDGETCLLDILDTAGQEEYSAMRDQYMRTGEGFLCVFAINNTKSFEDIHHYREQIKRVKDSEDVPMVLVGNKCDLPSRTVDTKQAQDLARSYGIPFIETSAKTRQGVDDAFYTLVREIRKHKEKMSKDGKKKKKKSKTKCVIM
Sequence of KRAS G12R GTP + RAF1 + CYPA (P62937 whole entry): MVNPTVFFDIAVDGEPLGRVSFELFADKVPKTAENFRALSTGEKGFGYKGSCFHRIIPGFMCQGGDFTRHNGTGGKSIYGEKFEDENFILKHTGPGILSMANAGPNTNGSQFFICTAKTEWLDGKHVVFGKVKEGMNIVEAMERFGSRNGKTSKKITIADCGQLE
Sequence of KRAS G12S GTP + RAF1 + CYPA (P01116 1-188 isoform P01116-2 G12S): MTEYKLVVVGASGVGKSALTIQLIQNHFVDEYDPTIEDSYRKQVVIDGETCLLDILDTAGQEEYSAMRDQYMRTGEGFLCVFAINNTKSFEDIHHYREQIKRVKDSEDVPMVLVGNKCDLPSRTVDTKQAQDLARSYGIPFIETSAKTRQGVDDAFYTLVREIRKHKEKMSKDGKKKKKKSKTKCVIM
Sequence of KRAS G12S GTP + RAF1 + CYPA (P62937 whole entry): as the sequence (P62937 whole entry) above
Sequence of KRAS G12V GTP + RAF1 + CYPA (P01116 1-188 isoform P01116-2 G12V): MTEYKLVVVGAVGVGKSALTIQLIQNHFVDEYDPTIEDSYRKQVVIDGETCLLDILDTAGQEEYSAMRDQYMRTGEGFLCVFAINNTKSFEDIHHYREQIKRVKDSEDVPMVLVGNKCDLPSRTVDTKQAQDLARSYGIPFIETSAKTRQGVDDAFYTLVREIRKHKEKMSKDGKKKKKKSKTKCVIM
Sequence of KRAS G12V GTP + RAF1 + CYPA (P62937 whole entry): as the sequence (P62937 whole entry) above
Sequence of KRAS G12C GTP + RAF1 + CYPA (P01116 1-188 isoform P01116-2 G12C): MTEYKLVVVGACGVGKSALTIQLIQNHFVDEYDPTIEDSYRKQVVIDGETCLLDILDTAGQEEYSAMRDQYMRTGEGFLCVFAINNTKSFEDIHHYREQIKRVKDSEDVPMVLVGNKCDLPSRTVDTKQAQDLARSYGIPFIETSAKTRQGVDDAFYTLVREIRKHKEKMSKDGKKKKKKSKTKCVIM
Sequence of KRAS G12C GTP + RAF1 + CYPA (P62937 whole entry): as the sequence (P62937 whole entry) above
Sequence of HRAS WT GTP + RAF1 + CYPA (P01112 whole entry): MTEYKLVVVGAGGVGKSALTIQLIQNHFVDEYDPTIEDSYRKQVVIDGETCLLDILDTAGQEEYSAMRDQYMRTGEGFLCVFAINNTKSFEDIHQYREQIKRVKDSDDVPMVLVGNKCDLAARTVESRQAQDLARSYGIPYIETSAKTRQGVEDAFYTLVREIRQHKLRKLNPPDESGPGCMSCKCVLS
Sequence of HRAS WT GTP + RAF1 + CYPA (P62937 whole entry): as the sequence (P62937 whole entry) above
Sequence of KRAS G12D GTP + RAF1 + CYPA (P01116 1-188 isoform P01116-2 G12D): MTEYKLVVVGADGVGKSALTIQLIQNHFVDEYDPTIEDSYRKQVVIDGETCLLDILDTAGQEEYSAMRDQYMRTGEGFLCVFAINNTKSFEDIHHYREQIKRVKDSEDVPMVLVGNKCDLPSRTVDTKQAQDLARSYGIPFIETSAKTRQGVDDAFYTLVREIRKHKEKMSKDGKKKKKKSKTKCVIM
Sequence of KRAS G12D GTP + RAF1 + CYPA (P62937 whole entry): as the sequence (P62937 whole entry) above
Sequence of KRAS Q61H GTP + RAF1 + CYPA (P01116 1-188 isoform P01116-2 Q61H): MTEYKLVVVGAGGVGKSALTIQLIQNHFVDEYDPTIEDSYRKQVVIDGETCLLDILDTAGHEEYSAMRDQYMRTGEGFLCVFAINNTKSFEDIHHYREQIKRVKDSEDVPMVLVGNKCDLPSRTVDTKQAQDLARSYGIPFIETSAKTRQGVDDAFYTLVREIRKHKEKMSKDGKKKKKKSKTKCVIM
Sequence of KRAS Q61H GTP + RAF1 + CYPA (P62937 whole entry): as the sequence (P62937 whole entry) above

IC50 [1]: 31.24 ± 0.3 nM
IC50 [2]: 15.8 ± 3.97 nM
IC50 [3]: 467.8 ± 4.6 nM
IC50 [4]: 165 ± 7.92 nM
IC50 [5]: 55.9 ± 8.92 nM
IC50 [6]: 729 ± 106 nM
IC50 [7]: 19.6 ± 1.03 nM
SMILES: CCn1c(-c2cc(P(C)(C)=O)ccc2[C@H](C)OC)c2c3cc(ccc31)-c1cc(O)cc(c1)C[C@H](NC(=O)[C@H](C(C)C)N(C)C(=O)[C@@H]1OCC[C@@H]1c1ccccc1)C(=O)N1CCC[C@H](N1)C(=O)OCC(C)(C)C2 [Example 2, (2R,3R)—N-((2S)-1-(((6^3S,4S)-1^2-(5-(dimethylphosphoryl)-2-((S)-1-methoxyethyl)phenyl)-1^1-ethyl-2^5-hydroxy-10,10-dimethyl-5,7-dioxo-6^1,6^2,6^3,6^4,6^5,6^6-hexahydro-1^1H-8-oxa-1(5,3)-indola-6(1,3)-pyridazina-2(1,3)-benzenacycloundecaphane-4-yl)amino)-3-methyl-1-oxobutan-2-yl)-N-methyl-3-phenyltetrahydrofuran-2-carboxamide]
inhibition of cell viability (RAS dependent cells): potently inhibited
inhibition of cell viability [8]: significantly inhibited
inhibition of cell viability (A375 (BRAF V600E) cells): relative insensitive
inhibition of cell viability (AGS (KRAS G12D) cells): significantly inhibited
inhibition of cell viability (LOVO (KRAS G13D) cells): significantly inhibited
inhibition of cell viability (HepG2 (NRAS Q61L) cells): significantly inhibited
inhibition of cell viability (SW620 (KRAS G12V) cells): significantly inhibited
inhibition of the interaction of RAF1 with active KRAS mutant protein or HRAS WT protein [9]: potently inhibited; also recorded: significantly inhibited
